Eight compounds from ChEMBL document CHEMBL4004853, “Design, synthesis and biological evaluation of thienopyrimidine hydroxamic acid based derivatives as structurally novel histone deacetylase (HDAC) inhibitors” (Eur J Med Chem, 2017) can be followed below.

One assay deals with HCT-116. The assay can be described thus: Antiproliferative activity against human HCT116 cells after 72 hrs by CellTiter 96 AQueous Non-Radioactive assay. The settings on record: HCT-116, 72 h. In kind it is functional, cell-based.
On to `N#Cc1cccc(Nc2ncnc3cc(NC(=O)CCCCCCC(=O)NO)sc23)c1`, for which the IC50 was 2090 nM.

Consider `O=C(CCCCCCC(=O)Nc1cc2ncnc(Nc3cccc(Cl)c3)c2s1)NO`, for which the IC50 amounted to 1820 nM.

For `O=C(CCCCCCC(=O)Nc1cc2ncnc(Nc3cccc(F)c3)c2s1)NO`, the IC50 was 1780 nM.

Consider `COc1cccc(Nc2ncnc3cc(NC(=O)CCCCCCC(=O)NO)sc23)c1`, for which the IC50 was 1330 nM.

On to `Cc1ccccc1Nc1ncnc2cc(NC(=O)CCCCCC(=O)NO)sc12`, for which the IC50 was 2560 nM.

As for `CCc1cccc(Nc2ncnc3cc(NC(=O)CCCCCCC(=O)NO)sc23)c1`, the IC50 was 1440 nM.

As to `COc1ccc(Nc2ncnc3cc(NC(=O)CCCCCCC(=O)NO)sc23)c(C)c1`, the IC50 came to 2480 nM.

Regarding `O=C(CCCCCCC(=O)Nc1cc2ncnc(Nc3cccc(Br)c3)c2s1)NO`, the IC50 was 1740 nM.

In another assay the target is T1, Histone deacetylase 1 (Homo sapiens, UniProt Q13547). Kind of assay: Inhibition of HDAC1 in human RPMI8226 cells assessed as increase in histone H3 acetylation after 24 hrs by western blot analysis. In kind it is cell-based.
T1 sequence (Q13547 whole entry): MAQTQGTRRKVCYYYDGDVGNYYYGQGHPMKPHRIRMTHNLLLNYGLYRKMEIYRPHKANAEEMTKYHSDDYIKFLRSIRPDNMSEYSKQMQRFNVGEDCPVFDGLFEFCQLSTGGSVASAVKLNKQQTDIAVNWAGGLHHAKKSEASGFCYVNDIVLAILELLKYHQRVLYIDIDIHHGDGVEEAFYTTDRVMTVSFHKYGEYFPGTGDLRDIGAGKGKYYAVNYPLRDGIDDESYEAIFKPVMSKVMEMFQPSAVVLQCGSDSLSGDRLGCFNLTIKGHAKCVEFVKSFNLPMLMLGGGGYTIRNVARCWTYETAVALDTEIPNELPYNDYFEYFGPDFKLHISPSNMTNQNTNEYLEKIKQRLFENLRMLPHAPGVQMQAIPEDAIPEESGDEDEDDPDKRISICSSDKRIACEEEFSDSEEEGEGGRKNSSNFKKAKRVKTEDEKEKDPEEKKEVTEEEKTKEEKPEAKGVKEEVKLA
Conditions: not given
As for `N#Cc1cccc(Nc2ncnc3cc(NC(=O)CCCCCCC(=O)NO)sc23)c1`, the inhibition result was “Dose-dependent effect”.

Regarding `COc1cccc(Nc2ncnc3cc(NC(=O)CCCCCCC(=O)NO)sc23)c1`, the inhibition entry was “Dose-dependent effect”.

A further assay deals with T2, Protein deacetylase HDAC6 (Homo sapiens, UniProt Q9UBN7).
T2 sequence (Q9UBN7 whole entry): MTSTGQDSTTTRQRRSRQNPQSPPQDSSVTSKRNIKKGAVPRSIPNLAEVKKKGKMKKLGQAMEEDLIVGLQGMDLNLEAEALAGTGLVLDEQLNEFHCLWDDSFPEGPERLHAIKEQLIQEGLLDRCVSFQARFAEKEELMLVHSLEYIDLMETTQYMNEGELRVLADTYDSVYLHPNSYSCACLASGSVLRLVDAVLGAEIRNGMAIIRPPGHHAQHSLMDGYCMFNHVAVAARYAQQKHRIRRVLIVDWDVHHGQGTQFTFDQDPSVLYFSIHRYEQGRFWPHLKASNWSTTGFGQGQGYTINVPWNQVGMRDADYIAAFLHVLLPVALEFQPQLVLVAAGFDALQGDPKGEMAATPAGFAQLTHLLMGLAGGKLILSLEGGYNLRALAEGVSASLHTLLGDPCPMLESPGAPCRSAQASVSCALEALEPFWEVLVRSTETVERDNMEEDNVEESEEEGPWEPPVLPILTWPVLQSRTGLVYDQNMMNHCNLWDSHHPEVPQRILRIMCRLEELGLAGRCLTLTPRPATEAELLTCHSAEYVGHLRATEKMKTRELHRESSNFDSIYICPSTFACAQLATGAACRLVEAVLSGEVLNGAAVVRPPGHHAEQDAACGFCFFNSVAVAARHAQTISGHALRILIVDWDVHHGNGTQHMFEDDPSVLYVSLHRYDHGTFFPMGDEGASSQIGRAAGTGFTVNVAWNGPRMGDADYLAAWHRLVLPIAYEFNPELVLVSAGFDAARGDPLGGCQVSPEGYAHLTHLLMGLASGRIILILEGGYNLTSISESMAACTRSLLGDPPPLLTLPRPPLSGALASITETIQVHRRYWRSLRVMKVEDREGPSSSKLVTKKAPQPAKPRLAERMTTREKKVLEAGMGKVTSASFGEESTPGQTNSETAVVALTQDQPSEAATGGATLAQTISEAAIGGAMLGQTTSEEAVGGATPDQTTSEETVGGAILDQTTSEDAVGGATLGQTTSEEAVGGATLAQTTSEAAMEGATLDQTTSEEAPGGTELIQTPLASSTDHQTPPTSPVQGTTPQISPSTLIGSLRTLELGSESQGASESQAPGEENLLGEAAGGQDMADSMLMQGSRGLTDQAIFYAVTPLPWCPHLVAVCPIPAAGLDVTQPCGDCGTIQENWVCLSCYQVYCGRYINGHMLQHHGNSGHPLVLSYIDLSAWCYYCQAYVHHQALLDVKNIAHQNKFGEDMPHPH
Kind of assay: Inhibition of full length recombinant human GST fused His6-tagged HDAC6 expressed in baculovirus infected High5 cells using Boc-Lys(epsilon-acetyl)-AMC as substrate measured after 3 hrs.
Conditions: not given
In the case of `N#Cc1cccc(Nc2ncnc3cc(NC(=O)CCCCCCC(=O)NO)sc23)c1`, the IC50 came out at 20.1 nM.

For the compound `O=C(CCCCCCC(=O)Nc1cc2ncnc(Nc3cccc(Cl)c3)c2s1)NO`, the 50% inhibitory concentration (IC50) was 33.8 nM.

Turning to `O=C(CCCCCCC(=O)Nc1cc2ncnc(Nc3cccc(F)c3)c2s1)NO`, the IC50 came to 42.5 nM.

As for `COc1cccc(Nc2ncnc3cc(NC(=O)CCCCCCC(=O)NO)sc23)c1`, the IC50 turned out to be 20.9 nM.

Turning to `Cc1ccccc1Nc1ncnc2cc(NC(=O)CCCCCC(=O)NO)sc12`, the IC50 turned out to be 87.6 nM.

As for `CCc1cccc(Nc2ncnc3cc(NC(=O)CCCCCCC(=O)NO)sc23)c1`, the IC50 was determined as 58.5 nM.

For `COc1ccc(Nc2ncnc3cc(NC(=O)CCCCCCC(=O)NO)sc23)c(C)c1`, the IC50 was determined as 111 nM.

As for `O=C(CCCCCCC(=O)Nc1cc2ncnc(Nc3cccc(Br)c3)c2s1)NO`, the IC50 amounted to 16.9 nM.

Another assay deals with T3, Protein deacetylase HDAC6 (Homo sapiens) (UniProt Q9UBN7).
T3 sequence (whole entry): T2 sequence (Q9UBN7 whole entry)
Kind of assay: Inhibition of HDAC6 in human RPMI8226 cells assessed as increase in tubulin acetylation after 24 hrs by western blot analysis. The assay is classed as cell-based.
Conditions: not given
On to `N#Cc1cccc(Nc2ncnc3cc(NC(=O)CCCCCCC(=O)NO)sc23)c1`, for which the inhibition result is “Dose-dependent effect”.

With `COc1cccc(Nc2ncnc3cc(NC(=O)CCCCCCC(=O)NO)sc23)c1`, the inhibition result is “Dose-dependent effect”.

The target of another assay is T1, Histone deacetylase 1. The assay can be described thus: Inhibition of full length recombinant human GST fused His6-tagged HDAC1 expressed in baculovirus infected High5 cells using Ac-Lys-Tyr-Lys(epsilon-acetyl)-AMC as substrate measured after 24 hrs.
Conditions: not given
Take `N#Cc1cccc(Nc2ncnc3cc(NC(=O)CCCCCCC(=O)NO)sc23)c1`: the IC50 was 45 nM.

As to `O=C(CCCCCCC(=O)Nc1cc2ncnc(Nc3cccc(Cl)c3)c2s1)NO`, the concentration for half-maximal inhibition (IC50) was determined as 53.8 nM.

Take `O=C(CCCCCCC(=O)Nc1cc2ncnc(Nc3cccc(F)c3)c2s1)NO`: the IC50 worked out at 73.7 nM.

For the compound `COc1cccc(Nc2ncnc3cc(NC(=O)CCCCCCC(=O)NO)sc23)c1`, the IC50 amounted to 62.2 nM.

Turning to `Cc1ccccc1Nc1ncnc2cc(NC(=O)CCCCCC(=O)NO)sc12`, the IC50 is 138 nM.

As for `CCc1cccc(Nc2ncnc3cc(NC(=O)CCCCCCC(=O)NO)sc23)c1`, the half-inhibitory concentration (IC50) is 116 nM.

With `COc1ccc(Nc2ncnc3cc(NC(=O)CCCCCCC(=O)NO)sc23)c(C)c1`, the IC50 was 117 nM.

Take `O=C(CCCCCCC(=O)Nc1cc2ncnc(Nc3cccc(Br)c3)c2s1)NO`: the IC50 stood at 54.5 nM.

A further assay deals with Histone deacetylase 3 (Homo sapiens, UniProt O15379). The assay can be described thus: Inhibition of full length recombinant human GST fused His6-tagged HDAC3 expressed in baculovirus infected High5 cells using Ac-Lys-Tyr-Lys(epsilon-acetyl)-AMC as substrate measured after 24 hrs.
Chain of Histone deacetylase 3 (O15379 whole entry, the tested form may be a part): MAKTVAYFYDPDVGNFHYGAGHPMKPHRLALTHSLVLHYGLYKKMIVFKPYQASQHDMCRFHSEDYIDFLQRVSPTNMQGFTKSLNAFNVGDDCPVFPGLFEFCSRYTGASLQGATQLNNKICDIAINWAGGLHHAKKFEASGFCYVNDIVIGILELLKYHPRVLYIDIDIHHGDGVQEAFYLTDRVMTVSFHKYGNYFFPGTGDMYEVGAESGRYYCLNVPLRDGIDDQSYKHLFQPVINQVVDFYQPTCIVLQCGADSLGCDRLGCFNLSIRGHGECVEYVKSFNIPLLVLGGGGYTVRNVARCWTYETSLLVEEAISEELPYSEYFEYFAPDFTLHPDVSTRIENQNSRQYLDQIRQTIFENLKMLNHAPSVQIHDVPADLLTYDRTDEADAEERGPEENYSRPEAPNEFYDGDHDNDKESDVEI
Conditions: not given
In the case of `N#Cc1cccc(Nc2ncnc3cc(NC(=O)CCCCCCC(=O)NO)sc23)c1`, the half-inhibitory concentration (IC50) stood at 19.8 nM.

`O=C(CCCCCCC(=O)Nc1cc2ncnc(Nc3cccc(Cl)c3)c2s1)NO`: the IC50 came out at 45.5 nM.

On to `O=C(CCCCCCC(=O)Nc1cc2ncnc(Nc3cccc(F)c3)c2s1)NO`, for which the half-maximal inhibitory concentration (IC50) turned out to be 64.5 nM.

For the compound `COc1cccc(Nc2ncnc3cc(NC(=O)CCCCCCC(=O)NO)sc23)c1`, the half-maximal inhibitory concentration (IC50) was 21.4 nM.

For `Cc1ccccc1Nc1ncnc2cc(NC(=O)CCCCCC(=O)NO)sc12`, the IC50 came to 98.8 nM.

Turning to `CCc1cccc(Nc2ncnc3cc(NC(=O)CCCCCCC(=O)NO)sc23)c1`, the 50% inhibitory concentration (IC50) is 147 nM.

In the case of `COc1ccc(Nc2ncnc3cc(NC(=O)CCCCCCC(=O)NO)sc23)c(C)c1`, the concentration for half-maximal inhibition (IC50) was determined as 144 nM.

On to `O=C(CCCCCCC(=O)Nc1cc2ncnc(Nc3cccc(Br)c3)c2s1)NO`, for which the IC50 was 33.8 nM.

The next assay has as its system RPMI-8226. Kind of assay: Antiproliferative activity against human RPMI8226 cells after 72 hrs by CellTiter 96 AQueous Non-Radioactive assay. In kind it is functional, cell-based. The settings on record: RPMI-8226, 72 h.
Consider `N#Cc1cccc(Nc2ncnc3cc(NC(=O)CCCCCCC(=O)NO)sc23)c1`, for which the IC50 amounted to 1580 nM.

On to `O=C(CCCCCCC(=O)Nc1cc2ncnc(Nc3cccc(Cl)c3)c2s1)NO`, for which the IC50 is 1520 nM.

Turning to `O=C(CCCCCCC(=O)Nc1cc2ncnc(Nc3cccc(F)c3)c2s1)NO`, the half-inhibitory concentration (IC50) was determined as 1630 nM.

`COc1cccc(Nc2ncnc3cc(NC(=O)CCCCCCC(=O)NO)sc23)c1`: the IC50 worked out at 1260 nM.

Turning to `Cc1ccccc1Nc1ncnc2cc(NC(=O)CCCCCC(=O)NO)sc12`, the IC50 came out at 1750 nM.

On to `CCc1cccc(Nc2ncnc3cc(NC(=O)CCCCCCC(=O)NO)sc23)c1`, for which the concentration for half-maximal inhibition (IC50) worked out at 1570 nM.

On to `COc1ccc(Nc2ncnc3cc(NC(=O)CCCCCCC(=O)NO)sc23)c(C)c1`, for which the IC50 stood at 1980 nM.

As to `O=C(CCCCCCC(=O)Nc1cc2ncnc(Nc3cccc(Br)c3)c2s1)NO`, the 50% inhibitory concentration (IC50) was 1750 nM.
